Measured values taken from publication PMC5842505, “Allosteric Inhibition of Serotonin 5-HT7 Receptors by Zinc Ions” (Molecular Neurobiology, 2017).
Where two headings read alike, the source gives them in different places.

How the values were obtained:
muscarinic M2 receptor = system: muscarinic M2 receptor; parameters: method as in PMID 17009927; settings: cited from earlier work
human 5-HT7 receptor [1] = molecular target: T1, human 5-HT7 receptor (Homo sapiens, UniProt P34969); test: Screen of monovalent and divalent cations on radioligand binding; settings: for decrease in radioligand binding relative to the control: higher cation concentration (5 mM)
T1 sequence (P34969 1-432 limits assumed): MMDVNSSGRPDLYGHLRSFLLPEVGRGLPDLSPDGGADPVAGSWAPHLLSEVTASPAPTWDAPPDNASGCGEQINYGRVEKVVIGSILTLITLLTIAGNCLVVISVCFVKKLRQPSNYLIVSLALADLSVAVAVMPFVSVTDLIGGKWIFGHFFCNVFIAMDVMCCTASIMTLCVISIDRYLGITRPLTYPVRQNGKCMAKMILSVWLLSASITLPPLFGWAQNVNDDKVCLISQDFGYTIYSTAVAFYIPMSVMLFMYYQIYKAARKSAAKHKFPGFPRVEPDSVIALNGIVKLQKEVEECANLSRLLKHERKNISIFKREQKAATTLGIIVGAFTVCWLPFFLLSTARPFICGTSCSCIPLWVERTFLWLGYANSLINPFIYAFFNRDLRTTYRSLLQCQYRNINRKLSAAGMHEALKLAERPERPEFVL
Method: Non-specific binding was defined by the binding obtained in the presence of 10 μM 5-HT. The incubation buffer consisted of 50 mM Tris–HCl (pH 7.7), 4 mM MgCl2, 10 μM pargyline, and 0.1% ascorbic acid. The binding reactions were stopped by filtration through GF/B UniFilter plates using a harvester (PerkinElmer). The plate filters were then dried, and 20 μl of Ultima Gold MV (PerkinElmer) was added. Radioactivity was measured using a MicroBeta TriLux counter (PerkinElmer).
Initially, different monovalent and divalent cations (Na^+, K^+, Mg^2+, Ca^2+, and Zn^2+) were screened at concentrations of 500 μM and 5 mM to assess whether they had any effects on the 5-HT7 receptor (Fig. 1).
The binding of radioligands in the absence of the tested cations is referred to as basal specific binding and was set to 100% (dotted line)

human 5-HT7b receptor = molecular target: T2, human 5-HT7b receptor (Homo sapiens, UniProt P34969); test: LANCE cAMP functional assay in HEK293 cells expressing the 5-HT7 receptor; type: cell-based; settings: for K B: antagonist vs 10 nM 5-CT; for effect on constitutive (unstimulated cAMP) activity: constitutively active 5-HT7 HEK293 cell line
T2 construct: The full-length human 5-HT7b receptor complementary DNA (cDNA)
T2 sequence (P34969 1-432 limits assumed): as above
Method: (§1) HEK293 cells stably expressing the human 5-HT7b receptor were grown in Dulbecco’s Modified Eagle’s Medium (DMEM) (Lonza, Basel, Switzerland) supplemented with 10% dialyzed fetal bovine serum (FBS) (Lonza) and 500 μg/ml G418 sulfate (Sigma-Aldrich) at 37 °C in a humidified atmosphere with 5% CO2. For the membrane preparations, the cells were sub-cultured in 150-cm^2 flasks, grown to 90% confluence, washed twice with phosphate-buffered saline (PBS) pre-warmed to 37 °C, and pelleted by centrifugation (200×g for 5 min) in PBS containing 0.1 mM ethylenediaminetetraacetic acid (EDTA) and 1 mM dithiothreitol (DTT). Prior to the membrane preparation, the pellets were frozen at −80 °C. For the functional experiments, the cells were sub-cultured in 75-cm^2 flasks, grown to 90% confluence, washed twice with PBS pre-warmed to 37 °C, and pelleted by centrifugation (180×g) in PBS containing 0.5 mM EDTA. The supernatant was aspirated, and the cell pellet was resuspended in stimulation buffer (1× HBSS, 5 mM HEPES, 0.5 mM IBMX, 0.1% BSA).
Each compound was tested at eight concentrations ranging from 0.01 nM to 100 μM. The total level of cAMP was measured using the LANCE cAMP detection kit (PerkinElmer) according to the manufacturer’s recommendations. To quantify the cAMP levels, 200 or 1000 (for measuring constitutive activity) cells/well (5 μl) were incubated with compounds (5 μl) for 30 min at room temperature in a 384-well white opaque microtiter plate. After incubation, 10 μl of the working solution (5 μl Eu-cAMP and 5 μl ULight-anti-cAMP) was added to induce cell lysis and terminate the reaction. The assay plate was incubated for 1 h at room temperature. The time-resolved fluorescence resonance energy transfer (TR-FRET) signal was detected using an Infinite M1000 PRO (Tecan, Männedorf, Switzerland) with instrument settings from the LANCE cAMP detection kit manual.
The derivation of the Cheng–Prusoff equation was applied for the analysis of antagonist functional inhibition curves

human 5-HT7 receptor [2] = molecular target: T1, human 5-HT7 receptor; test: Competition radioligand binding (orthosteric ligands ± Zn2+; Zn2+ titration curves); parameters: The full-length human 5-HT7b receptor complementary DNA (cDNA); settings: read-out: IC50 for inhibiting radioligand binding
Method: (§2) Cell pellets were thawed and homogenized in 10 volumes of 50 mM Tris–HCl buffer (pH 7.7) containing 0.1 mM EDTA, using an Ultra Turrax tissue homogenizer. The pellets were centrifuged twice at 35,000×g for 20 min at 4 °C, with 15-min incubation at 37 °C between centrifugations. The pellets were then resuspended in the incubation buffer as described below for the radioligand binding assays. The membrane protein concentrations were determined using the Pierce™ Coomassie (Bradford) Protein Assay Kit (Thermo Fisher Scientific, Waltham, USA), with bovine serum albumin (BSA) as the standard.
(§3) Data from the saturation (K D), competition binding (K i), and kinetic experiments (koff/offobs) were fitted to a one- or two-site model, and the models were compared using an F test (extra sum-of-squares test).
For the competition binding assay, the affinity constant values (K i) were calculated using the Cheng–Prusoff equation (Eq. 2): […]

human 5-HT7 receptor [3] = molecular target: T1, human 5-HT7 receptor; test: Saturation radioligand binding in the absence and presence of Zn2+; parameters: The full-length human 5-HT7b receptor complementary DNA (cDNA); settings: non-linear regression, Eq. 1
Method: as §1, §2, §3

5-HT1A receptor = system: 5-HT1A receptor; parameters: method as in PMID 26660328; settings: cited from earlier work
HEK293 cells = settings: 30-min exposure, MTT and LDH tests
Method: To estimate potential ZnCl2-induced cell death, a colorimetric method was applied in which the amount of formazan salt that had formed after the conversion of lactate to pyruvate followed by the reduction of tetrazolium salt was proportional to the lactate dehydrogenase (LDH) activity in the sample. All procedures were conducted according to the manufacturer’s protocol (Pierce LDH Cytotoxicity Assay Kit, Thermo Fisher Scientific, Waltham, Massachusetts, USA). In brief, the level of LDH released from damaged cells into the culture medium was measured after a 30-min exposure to different concentrations of ZnCl2 in 96-well plates. Cell-free culture supernatants were collected from each well and incubated with the appropriate substrate mix at RT for 30 min. The intensity of the red color formed in the assay and measured at a wavelength of 490 nm was proportional to the LDH activity and the number of damaged cells. The data were normalized to the activity of LDH released from lysis buffer-treated cells (100%) and expressed as a percent of the total ± SEM from three separate experiments.
The yellow tetrazolium 3-(4,5-dimethylthiazolyl-2)-2,5-diphenyltetrazolium bromide (MTT) is reduced by metabolically active cells, by the action of dehydrogenase enzymes, generating NADH and NADPH. The resulting intracellular purple formazan is then solubilized and quantified by spectrophotometry. […]

[4] = cation at both concentrations, 500 μM and 5 mM

Question: For C=CC[N@@+]12CC[C@@]34c5ccccc5N5/C=C6/[C@H]7C[C@H]8[C@@]9(CC[N@@+]8(CC=C)C/C7=C/CO)c7ccccc7N(/C=C(/[C@@H](C[C@@H]31)/C(=C\CO)C2)[C@H]54)[C@@H]69 [alcuronium], which “change in the affinity of acetylcholine (fold)” value (muscarinic M2 receptor) is on record?
Answer: 10 fold

Question: And the “change in the affinity of arecoline (fold)” value (muscarinic M2 receptor)?
Answer: 1.7 fold

Question: For [K+] [K^+], which “effect on the binding of the three tested radioligands” value (shortened to “effect on the binding”) (human 5-HT7 receptor [1]; [4]) is on record?
Answer: did not alter

Question: For [Na+] [Na^+], which “effect on the binding” value (human 5-HT7 receptor [1]; [4]) is on record?
Answer: did not alter

Question: Which “effect on the binding” value (human 5-HT7 receptor [1]; cation 500 μM) does the source give for [Mg+2] [Mg^2+] here?
Answer: did not alter

Question: What about the “decrease in radioligand binding relative to the control” value (human 5-HT7 receptor [1]) of the same molecule?
Answer: 10 to 20%

Question: Which “effect on the binding” value (human 5-HT7 receptor [1]; cation 500 μM) does the source give for [Ca+2] [Ca^2+] here?
Answer: did not alter

Question: And the “decrease in radioligand binding relative to the control” value (human 5-HT7 receptor [1])?
Answer: 10 to 20%

Question: With CN1C[C@@H](NS(=O)(=O)N(C)C)C[C@@H]2c3cccc4c3c(cn4C)C[C@H]21 [Mesulergine, mesulergine] as the molecule, how does the “K B” value (human 5-HT7b receptor; Zn2+ 0 μM) read?
Answer: 31.05 ± 7.51 nM

Question: And the “K B” value (human 5-HT7b receptor; Zn2+ 0 μM, listed as mesulergine)?
Answer: 31 nM

Question: What about the “K B” value (human 5-HT7b receptor; Zn2+ 10 μM) of the same molecule?
Answer: 37.15 ± 6.86 nM

Question: What about the “effect on constitutive (unstimulated cAMP) activity” value (human 5-HT7b receptor) of the same molecule?
Answer: inverse agonistic properties

Question: With [Cl-].[Cl-].[Zn+2] [Zn^2+, ZnCl2] as the molecule, how does the “effect on constitutive (unstimulated cAMP) activity” value (human 5-HT7b receptor) read?
Answer: no influence

Question: And the functional profile (human 5-HT7b receptor; zinc concentration up to 10 μM)?
Answer: weak neutral antagonist

Question: And the IC50 (human 5-HT7 receptor [2]; vs [3H]5-CT at fixed concentration (≤K D))?
Answer: 346 µM

Question: And the IC50 (human 5-HT7 receptor [2]; vs [3H]SB-269970 at fixed concentration (≤K D))?
Answer: 1170 µM

Question: And the IC50 (human 5-HT7 receptor [2]; vs [3H]mesulergine at fixed concentration (≤K D))?
Answer: 241 µM

Question: What about the “effect on the level of [3H]SB-269970 binding” value (human 5-HT7 receptor [1]; cation 500 μM) of the same molecule?
Answer: did not influence

Question: What about the “reduction of [3H]5-CT binding” value (human 5-HT7 receptor [1]; cation 500 μM) of the same molecule?
Answer: 67%

Question: And the “reduction of [3H]mesulergine binding” value (human 5-HT7 receptor [1]; cation 500 μM)?
Answer: 55%

Question: And the “decrease in radioligand binding relative to the control” value (human 5-HT7 receptor [1])?
Answer: up to 90%

Question: What about the “cooperativity factor α” value (human 5-HT7 receptor [3]; vs [3H]5-CT binding) of the same molecule?
Answer: 0.15

Question: What about the “cooperativity factor α” value (human 5-HT7 receptor [3]; vs [3H]SB-269970 binding) of the same molecule?
Answer: 0.06

Question: And the “cooperativity factor α” value (human 5-HT7 receptor [3]; vs [3H]mesulergine binding)?
Answer: 0.25

Question: What about the “effect on agonist binding” value (5-HT1A receptor; Zn2+ 10 μM) of the same molecule?
Answer: potentiation

Question: What about the “effect on agonist binding” value (5-HT1A receptor; Zn2+ 500 μM) of the same molecule?
Answer: inhibition

Question: What about the “concentration not affecting the number of living cells” value (HEK293 cells) of the same molecule?
Answer: ≤ 200 µM
